Test results: patent publication US10294202B2, “Pyrrolidinones as herbicides” (FMC Corporation, priority 2013, dated 2019)

Legend:
[1] = tested on: barnyardgrass; assay: Test A pre-/postemergence herbicide test; type: in vivo, Echinochloa crus-galli; conditions: for Plant response rating, Barnyardgrass: 0 to 100 scale
In short: (§1)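 Planted in loam–sand blend; treated the same day preemergence by directed soil spray, while separately grown plants at one- to two-leaf stage got postemergence spray. Compared visually with untreated controls after approximately 10 days; 100 means complete control.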

[2] = tested on: kochia; assay: Test A pre-/postemergence herbicide test; type: in vivo, Kochia scoparia; conditions: for Plant response rating, Kochia: 0 to 100 scale
In short: as §1

[3] = tested on: ragweed; assay: Test A pre-/postemergence herbicide test; type: in vivo, Ambrosia elatior; conditions: for Plant response rating, Ragweed: 0 to 100 scale
In short: as §1

[4] = tested on: ryegrass, Italian; assay: Test A pre-/postemergence herbicide test; type: in vivo, Lolium multiflorum; conditions: for Plant response rating, Ryegrass, Italian: 0 to 100 scale
In short: as §1

[5] = tested on: giant foxtail; assay: Test A pre-/postemergence herbicide test; type: in vivo, Setaria faberii; conditions: for Plant response rating, Foxtail, Giant: 0 to 100 scale
In short: as §1

[6] = tested on: pigweed; assay: Test A pre-/postemergence herbicide test; type: in vivo, Amaranthus retroflexus; conditions: for Plant response rating, Pigweed: 0 to 100 scale
In short: as §1

[7] = tested on: wheat; assay: Test A pre-/postemergence herbicide test; type: in vivo, Triticum aestivum; conditions: Postemergence
In short: as §1

[8] = tested on: corn; assay: Test A pre-/postemergence herbicide test; type: in vivo, Zea mays; conditions: Postemergence
In short: as §1

[9] = tested on: blackgrass; assay: Test A postemergence herbicide test; type: in vivo, Alopecurus myosuroides
In short: (§2)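 Blackgrass and galium grown in pots of loam soil–sand blend, treated postemergence at 2–10 cm height, one- to two-leaf stage. Plants kept in greenhouse ~10 days, then visually rated for injury against untreated controls on a 0–100 scale (0 no effect, 100 complete control).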

[10] = tested on: galium; assay: Test A postemergence herbicide test; type: in vivo, Galium aparine
In short: as §2

[11] = tested on: rice; assay: Test C flooded paddy test; type: in vivo, Oryza sativa; conditions: Flood
In short: (§3)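 Plants at the 2-leaf stage in pots flooded to 3 cm were treated by applying compound directly to the paddy water, with depth held throughout. After 13 to 15 days in a greenhouse, response was rated visually against controls on a 0 (no effect) to 100 (complete control) scale.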

[12] = tested on: sedge, umbrella; assay: Test C flooded paddy test; type: in vivo, Cyperus difformis; conditions: Flood
In short: as §3

[13] = tested on: ducksalad; assay: Test C flooded paddy test; type: in vivo, Heteranthera limosa; conditions: Flood
In short: as §3

[14] = tested on: barnyardgrass; assay: Test C flooded paddy test; type: in vivo, Echinochloa crus-galli; conditions: Flood
In short: as §3

[15] = 125 g ai/ha, visual rating, 0 no effect, 100 complete control, approximately 10 days, preemergence
[16] = Postemergence, 125 g ai/ha, 0 is no effect, 100 is complete control
[17] = preemergence, 500 g ai/ha, 0 is no effect and 100 is complete control
[18] = 125 g ai/ha, 0 to 100 scale, 0 is no effect, 100 is complete control
[19] = 125 g ai/ha, scale of 0 to 100 where 0 is no effect and 100 is complete control, 13 to 15 days
[20] = 250 g ai/ha, scale of 0 to 100 where 0 is no effect and 100 is complete control, 13 to 15 days

O=C1NCC(c2cccc(C(F)F)c2)C1C(=O)Nc1ccccc1C(F)(F)F (racemic) [Compound 212]
65: Plant response rating, Barnyardgrass ([14]; 1000 g ai/ha, scale 0 to 100)
70: Plant response rating, Foxtail, Giant [5, 15] | Wheat plant response rating (0 to 100 scale, 0 is no effect, 100 is complete control) ([7]; 500 g ai/ha) | Plant response rating, Ducksalad [13, 20]
90: Barnyardgrass plant response rating (0 to 100 scale, 0 is no effect, 100 is complete control) ([1]; Postemergence, 500 g ai/ha) | Plant response rating, Barnyardgrass [1, 17] | Foxtail, Giant plant response rating (0 to 100 scale, 0 is no effect, 100 is complete control) ([5]; Postemergence, 500 g ai/ha) | Plant response rating, Foxtail, Giant [5, 17]
40: Plant response rating, Blackgrass [9, 18] | Plant response rating, Barnyardgrass ([14]; 500 g ai/ha, scale 0 to 100)
75: Plant response rating, Ducksalad ([13]; 500 g ai/ha, scale 0 to 100)
50: Plant response rating, Ragweed [3, 17] | Corn plant response rating (0 to 100 scale, 0 is no effect, 100 is complete control) ([8]; 500 g ai/ha) | Plant response rating, Galium [10, 18]
100: Plant response rating, Ducksalad ([13]; 1000 g ai/ha, scale 0 to 100)
20: Kochia plant response rating (0 to 100 scale, 0 is no effect, 100 is complete control) ([2]; Postemergence, 500 g ai/ha) | Plant response rating, Kochia [2, 17] | Ragweed plant response rating (0 to 100 scale, 0 is no effect, 100 is complete control) ([3]; Postemergence, 500 g ai/ha)
15: Plant response rating, Barnyardgrass [14, 20]
60: Plant response rating, Barnyardgrass [1, 15] | Plant response rating, Barnyardgrass [1, 16] | Plant response rating, Foxtail, Giant [5, 16] | Blackgrass plant response rating (0 to 100 scale, 0 is no effect, 100 is complete control) ([9]; 500 g ai/ha) | Galium plant response rating (0 to 100 scale, 0 is no effect, 100 is complete control) ([10]; 500 g ai/ha)
30: Plant response rating, Ryegrass, Italian [4, 17]
0: Plant response rating, Kochia [2, 15] | Plant response rating, Kochia [2, 16] | Plant response rating, Ragweed [3, 15] | Plant response rating, Ragweed [3, 16] | Plant response rating, Ryegrass, Italian [4, 15] | Plant response rating, Ryegrass, Italian [4, 16] | Ryegrass, Italian plant response rating (0 to 100 scale, 0 is no effect, 100 is complete control) ([4]; Postemergence, 500 g ai/ha) | Plant response rating, Pigweed [6, 15] | Plant response rating, Pigweed [6, 16] | Pigweed plant response rating (0 to 100 scale, 0 is no effect, 100 is complete control) ([6]; Postemergence, 500 g ai/ha) | Plant response rating, Pigweed [6, 17] | Plant response rating, Wheat [7, 18] | Plant response rating, Corn [8, 18] | Plant response rating, Rice [11, 19] | Plant response rating, Rice [11, 20] | Plant response rating, Rice ([11]; 500 g ai/ha, scale 0 to 100) | Plant response rating, Rice ([11]; 1000 g ai/ha, scale 0 to 100) | Plant response rating, Sedge, Umbrella [12, 19] | Plant response rating, Sedge, Umbrella [12, 20] | Plant response rating, Sedge, Umbrella ([12]; 500 g ai/ha, scale 0 to 100) | Plant response rating, Sedge, Umbrella ([12]; 1000 g ai/ha, scale 0 to 100) | Plant response rating, Ducksalad [13, 19] | Plant response rating, Barnyardgrass [14, 19]
